Measured values reported in ChEMBL document CHEMBL6182949 (J Med Chem, 2025).
In brackets after ≈: the same amount, converted by molar mass. Activity calls are given as the source filed them. The calls are words filed in the database; no cut-off is given here.

How the values were obtained:
[1] = Metabolic stability dog hepatocyte assessed as half life at 1 uM measured up to 120 mins by LC-MS/MS analysis; type: ADME, cell-based, Canis lupus familiaris; details: hepatocytes
[2] = target: Cereblon/Ikaros (Homo sapiens) (UniProt Q96SW2+Q13422); experiment: PROTAC activity at CRBN/IKZF1 in human PBMC cells assessed as induction of SALL4 degradation at 1 uM by Western blot analysis; type: cell-based
[3] = Efflux ratio of permeability across basolateral to apical over apical to basolateral side in human Caco-2 cells measured up to 120 mins by LC-MS/MS analysis; type: ADME, cell-based
[4] = Metabolic stability in rat liver microsome assessed as half life at 1 uM measured up to 60 mins in presence of NADPH by LC-MS/MS analysis; type: ADME; details: liver microsomes
Mus musculus [5] = experiment: Anti-psoriasis effect in IMQ-induced C57BL/6 mouse assessed as reduction in spleen weight at 30 mg/kg administered topically twice daily for 6 days and measured after 24 hrs; type: functional, organism-based; details: time 7.0 day
Mus musculus [6] = experiment: Anti-psoriasis effect in IMQ-induced C57BL/6 mouse assessed as reduction in ear thickness at 100 mg/kg administered topically twice daily for 6 days and measured after 24 hrs; type: functional, organism-based; details: time 7.0 day
[7] = AUClast in cynomolgus monkey at 20 mg/kg, po measured up to 24 hrs by LC-MS/MS analysis; type: ADME, organism-based, Macaca fascicularis; details: in vivo
[8] = Cmax in cynomolgus monkey at 20 mg/kg, po measured up to 24 hrs by LC-MS/MS analysis; type: ADME, organism-based, Macaca fascicularis; details: in vivo
[9] = Kinetic solubility of compound in FaSSIF at pH 6.5 incubated for 2 hr by LC-MS analysis; type: physicochemical; details: read-out: Kinetic_solubility
Mus musculus [10] = experiment: Anti-arthritic activity against collagen-induced arthritis DBA/1 mouse model assessed as reduction in pathological score at 30 mg/kg, po administered for 14 days; type: functional, organism-based; details: time 14.0 day
[11] = target: Protein cereblon/Interleukin-1 receptor-associated kinase 4 (Macaca fascicularis) (UniProt A0A2K5UTB3+A0A2K5V3Y9); experiment: PROTAC activity at CRBN/IRAK4 in cynomolgus monkey PBMC assessed as reduction in IRAK4 level measured at 48 hrs by immunoblotting analysis; type: cell-based; set-up: scale not given: the % may be the effect or the level left
Protein cereblon/Interleukin-1 receptor-associated kinase 4 (Macaca fascicularis), sequence (A0A2K5UTB3 1-488): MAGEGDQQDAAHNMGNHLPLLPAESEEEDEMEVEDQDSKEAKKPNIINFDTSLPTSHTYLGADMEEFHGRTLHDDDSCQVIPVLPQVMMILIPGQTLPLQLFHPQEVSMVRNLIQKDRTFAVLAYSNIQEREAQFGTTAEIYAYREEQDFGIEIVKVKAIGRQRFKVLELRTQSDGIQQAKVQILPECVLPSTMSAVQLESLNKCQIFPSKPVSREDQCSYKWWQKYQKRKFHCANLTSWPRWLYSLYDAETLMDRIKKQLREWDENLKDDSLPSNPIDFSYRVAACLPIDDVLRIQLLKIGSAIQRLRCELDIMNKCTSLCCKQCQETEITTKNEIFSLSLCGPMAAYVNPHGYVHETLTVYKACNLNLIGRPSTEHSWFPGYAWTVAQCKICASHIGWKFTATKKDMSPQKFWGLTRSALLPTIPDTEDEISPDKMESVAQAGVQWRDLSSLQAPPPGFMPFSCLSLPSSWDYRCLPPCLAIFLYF
Protein cereblon/Interleukin-1 receptor-associated kinase 4 (Macaca fascicularis), sequence (A0A2K5V3Y9 1-460 partner): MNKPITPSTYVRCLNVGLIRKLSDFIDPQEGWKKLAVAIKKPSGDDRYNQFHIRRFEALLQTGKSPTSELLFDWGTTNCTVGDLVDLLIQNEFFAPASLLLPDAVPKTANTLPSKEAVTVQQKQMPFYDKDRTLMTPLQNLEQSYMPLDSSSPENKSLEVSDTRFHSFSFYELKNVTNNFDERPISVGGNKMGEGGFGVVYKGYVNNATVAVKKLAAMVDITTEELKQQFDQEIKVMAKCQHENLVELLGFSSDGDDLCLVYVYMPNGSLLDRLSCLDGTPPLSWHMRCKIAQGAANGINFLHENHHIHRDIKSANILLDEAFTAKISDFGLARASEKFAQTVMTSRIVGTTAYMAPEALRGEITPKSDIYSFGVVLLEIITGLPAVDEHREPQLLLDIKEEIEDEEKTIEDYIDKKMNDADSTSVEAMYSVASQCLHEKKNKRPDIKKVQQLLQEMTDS

[12] = Metabolic stability rat hepatocyte assessed as half life at 1 uM measured up to 120 mins by LC-MS/MS analysis; type: ADME, cell-based; details: hepatocytes
[13] = Oral bioavailability in Sprague-Dawley rat at 10 mg/kg measured up to 24 hrs by LC-MS/MS analysis; type: ADME, organism-based; details: in vivo
[14] = AUClast in Sprague-Dawley rat at 10 mg/kg, po measured up to 24 hrs by LC-MS/MS analysis; type: ADME, organism-based; details: in vivo
CYP3A4 [15] = target: T1, CYP3A4 (Homo sapiens, UniProt P08684); experiment: Inhibition of CYP3A4 in human liver microsome using midazolam as substrate at 10 uM preincubated for 5 mins followed by NADPH addition and measured after 10 mins by LC-MS/MS analysis relative to control; type: ADME; details: human liver microsomes, probe midazolam, time 15 min
T1 sequence (P08684 whole entry): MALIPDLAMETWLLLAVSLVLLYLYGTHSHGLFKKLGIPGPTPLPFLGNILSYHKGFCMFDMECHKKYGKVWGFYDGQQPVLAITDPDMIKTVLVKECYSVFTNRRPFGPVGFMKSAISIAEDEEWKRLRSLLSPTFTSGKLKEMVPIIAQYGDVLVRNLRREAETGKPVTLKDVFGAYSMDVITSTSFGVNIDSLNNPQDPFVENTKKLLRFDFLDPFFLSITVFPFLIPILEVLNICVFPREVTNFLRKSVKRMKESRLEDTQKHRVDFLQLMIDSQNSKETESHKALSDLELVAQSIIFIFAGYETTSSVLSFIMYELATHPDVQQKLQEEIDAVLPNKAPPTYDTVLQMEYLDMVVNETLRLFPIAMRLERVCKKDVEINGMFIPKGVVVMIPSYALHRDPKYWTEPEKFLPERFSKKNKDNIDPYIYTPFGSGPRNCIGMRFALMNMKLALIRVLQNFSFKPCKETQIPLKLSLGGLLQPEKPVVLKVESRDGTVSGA

[16] = Metabolic stability in human liver microsome assessed as half life at 1 uM measured up to 60 mins in presence of NADPH by LC-MS/MS analysis; type: ADME; details: liver microsomes
[17] = Clearance in cynomolgus monkey at 1 mg/kg, iv measured up to 24 hrs by LC-MS/MS analysis; type: ADME, organism-based, Macaca fascicularis; details: in vivo
[18] = Half life in male C57BL/6 mouse at 2 mg/kg, iv measured up to 24 hrs by LC-MS/MS analysis; type: ADME, organism-based; details: in vivo
[19] = AUClast in Sprague-Dawley rat at 2 mg/kg, iv measured up to 24 hrs by LC-MS/MS analysis; type: ADME, organism-based; details: in vivo
Mus musculus [20] = experiment: Anti-psoriasis effect in IMQ-induced C57BL/6 mouse assessed as reduction in ear thickness at 30 mg/kg administered topically twice daily for 6 days and measured after 24 hrs; type: functional, organism-based; details: time 7.0 day
Mus musculus [21] = experiment: Anti-psoriasis effect in IMQ-induced C57BL/6 mouse assessed as reduction in erythema intensity administered topically twice daily for 6 days and measured after 24 hrs; type: functional, organism-based; details: dose 10-100 mg/kg, time 7.0 day
[22] = Kinetic solubility of compound in FaSSGF at […] incubated for 2 hr by LC-MS analysis; type: physicochemical; details: read-out: Kinetic_solubility
[23] = Cmax in cynomolgus monkey at 1 mg/kg, iv measured up to 24 hrs by LC-MS/MS analysis; type: ADME, organism-based, Macaca fascicularis; details: in vivo
[24] = Tmax in Sprague-Dawley rat at 10 mg/kg, po measured up to 24 hrs by LC-MS/MS analysis; type: ADME, organism-based; details: in vivo
[25] = AUClast in Beagle dog at 10 mg/kg, po measured up to 24 hrs by LC-MS/MS analysis; type: ADME, organism-based, Canis lupus familiaris; details: in vivo
[26] = Plasma protein binding in mouse assessed as unbound fraction incubated for 2 hrs by rapid equilibrium dialysis; type: ADME, cell-free
[27] = Metabolic stability in dog liver microsome assessed as half life at 1 uM measured up to 60 mins in presence of NADPH by LC-MS/MS analysis; type: ADME, Canis lupus familiaris; details: liver microsomes
[28] = target: T2, Protein cereblon/Interleukin-1 receptor-associated kinase 4 (Mus musculus) (UniProt Q8C7D2+Q8R4K2); experiment: In-vivo PROTAC activity at C57BL/6 mouse assessed as reduction in IRAK4 level in spleen at 100 mg/kg, po measured after 24 hrs by Western blot analysis; type: functional, organism-based; set-up: scale not given: the % may be the effect or the level left
T2 sequence (Q8C7D2 whole entry, looked up): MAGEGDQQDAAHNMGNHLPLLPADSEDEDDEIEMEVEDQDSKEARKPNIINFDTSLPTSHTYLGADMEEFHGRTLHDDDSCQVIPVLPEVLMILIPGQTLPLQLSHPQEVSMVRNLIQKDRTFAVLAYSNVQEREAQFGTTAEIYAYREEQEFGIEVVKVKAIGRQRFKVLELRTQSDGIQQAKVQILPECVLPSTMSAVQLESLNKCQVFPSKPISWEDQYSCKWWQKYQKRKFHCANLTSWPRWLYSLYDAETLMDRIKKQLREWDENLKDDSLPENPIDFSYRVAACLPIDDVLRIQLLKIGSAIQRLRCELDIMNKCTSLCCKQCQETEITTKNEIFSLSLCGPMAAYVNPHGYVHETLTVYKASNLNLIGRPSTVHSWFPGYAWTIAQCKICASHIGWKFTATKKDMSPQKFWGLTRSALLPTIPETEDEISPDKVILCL
T2 sequence (Q8R4K2 whole entry, looked up): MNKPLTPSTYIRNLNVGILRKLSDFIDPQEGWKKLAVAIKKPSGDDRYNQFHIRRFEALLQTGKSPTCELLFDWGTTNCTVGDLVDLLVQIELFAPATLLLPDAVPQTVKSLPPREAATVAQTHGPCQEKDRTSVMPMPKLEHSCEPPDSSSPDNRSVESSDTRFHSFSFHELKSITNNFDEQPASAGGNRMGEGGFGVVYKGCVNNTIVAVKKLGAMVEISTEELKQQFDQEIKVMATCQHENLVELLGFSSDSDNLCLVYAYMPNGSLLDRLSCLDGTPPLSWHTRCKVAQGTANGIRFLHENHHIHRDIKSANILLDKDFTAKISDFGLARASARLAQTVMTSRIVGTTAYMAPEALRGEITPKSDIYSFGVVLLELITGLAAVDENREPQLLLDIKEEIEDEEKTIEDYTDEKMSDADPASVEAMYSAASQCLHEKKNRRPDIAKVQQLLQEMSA

[29] = target: Protein cereblon/Interleukin-1 receptor-associated kinase 4 (Homo sapiens, UniProt Q9NWZ3+Q96SW2); experiment: PROTAC activity at CRBN/IRAK4 in human THP-1 cells assessed as induction of IRAK4 degradation incubated for 24 hrs by HiBiT lytic reagent based analysis; type: cell-based
Protein cereblon/Interleukin-1 receptor-associated kinase 4, sequence (Q9NWZ3 whole entry): as the sequence (A0A2K5V3Y9 1-460 partner) above, with V118I, Y128C, L138V, L148P, A208T, D459A counted along it
Protein cereblon/Interleukin-1 receptor-associated kinase 4, sequence (Q96SW2 whole entry): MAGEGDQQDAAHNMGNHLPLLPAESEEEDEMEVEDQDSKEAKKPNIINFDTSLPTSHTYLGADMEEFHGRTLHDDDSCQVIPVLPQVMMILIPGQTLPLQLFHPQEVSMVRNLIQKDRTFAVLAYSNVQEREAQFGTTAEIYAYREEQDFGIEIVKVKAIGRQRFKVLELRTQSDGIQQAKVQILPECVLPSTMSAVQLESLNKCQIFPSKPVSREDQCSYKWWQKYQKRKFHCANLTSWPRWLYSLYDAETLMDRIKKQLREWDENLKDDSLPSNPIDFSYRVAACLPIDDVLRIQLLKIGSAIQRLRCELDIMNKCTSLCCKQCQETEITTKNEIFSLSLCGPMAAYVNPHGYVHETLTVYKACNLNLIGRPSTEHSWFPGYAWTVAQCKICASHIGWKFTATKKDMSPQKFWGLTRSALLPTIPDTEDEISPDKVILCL

[30] = Kinetic solubility of compound in FeSSIF at pH 5 incubated for 2 hr by LC-MS analysis; type: physicochemical; details: read-out: Kinetic_solubility
[31] = Metabolic stability monkey hepatocyte assessed as half life at 1 uM measured up to 120 mins by LC-MS/MS analysis; type: ADME, cell-based, Macaca mulatta; details: rhesus monkey, hepatocytes
Mus musculus [32] = experiment: Anti-psoriasis effect in IMQ-induced C57BL/6 mouse assessed as reduction in spleen weight at 100 mg/kg administered topically twice daily for 6 days and measured after 24 hrs; type: functional, organism-based; details: time 7.0 day
[33] = Half life in cynomolgus monkey at 1 mg/kg, iv measured up to 24 hrs by LC-MS/MS analysis; type: ADME, organism-based, Macaca fascicularis; details: in vivo
[34] = Half life in male C57BL/6 mouse at 10 mg/kg, po measured up to 24 hrs by LC-MS/MS analysis; type: ADME, organism-based; details: in vivo
[35] = Volume of distribution at steady state in Beagle dog at 2 mg/kg, iv measured up to 24 hrs by LC-MS/MS analysis; type: ADME, organism-based, Canis lupus familiaris; details: in vivo
[36] = target: T2, Protein cereblon/Interleukin-1 receptor-associated kinase 4 (Mus musculus); experiment: PROTAC activity at CRBN/IRAK4 in mouse PBMC cells assessed as induction of IRAK4 degradation incubated for 24 hrs by HiBiT lytic reagent based analysis relative to control; type: cell-based
CYP3A4 [37] = target: T1, CYP3A4; experiment: Inhibition of CYP3A4 in human liver microsome using testosterone as substrate at 10 uM preincubated for 5 mins followed by NADPH addition and measured after 10 mins by LC-MS/MS analysis relative to control; type: ADME; details: human liver microsomes, probe testosterone, time 15 min
[38] = Oral bioavailability in Beagle dog at 10 mg/kg measured up to 24 hrs by LC-MS/MS analysis; type: ADME, organism-based, Canis lupus familiaris; details: in vivo

## Cn1c(=O)n(C2CCC(=O)NC2=O)c2cccc(C#CCO[C@H]3CC[C@H](CN4CCC5(CC4)Cc4cc(NC(=O)c6coc7cccnc67)c(N6CCC(CO)CC6)cc4O5)CC3)c21 (stereo partly drawn)
[1]
  half-life at 1 µM: > 6.18 h
[2]
  Activity: inactive
[3]
  efflux ratio at 2 h: 2.22
[4]
  half-life at 1 µM: > 3.07 h
Mus musculus [5]
  Activity: Active
Mus musculus [6]
  Activity: Active
[7]
  AUC(0-t) at 24 h: 4000 ng·h/mL
[8]
  Cmax: 229 ng/mL
[9]
  solubility kinetic at 2 h: 13.3 µg/mL (≈ 15.3 µM)
Mus musculus [10]
  Activity: Active
[11]
  Activity: 83%
[12]
  half-life at 1 µM: 2.65 h
[13]
  F: 18%
[14]
  AUClast: 7093 ng·h/mL
CYP3A4 [15]
  inhibition at 10 min, 10 µM: 19.1%
[16]
  half-life at 1 µM: > 3.07 h
[17]
  clearance: 9.2 mL/min/kg
[18]
  half-life: 3.12 h
[19]
  AUClast: 25.89 ng·h/mL
Mus musculus [20]
  Activity: Active
Mus musculus [21]
  Activity: Dose-dependent-effect
[22]
  solubility kinetic at 2 h: 252 µg/mL (≈ 290 µM)
[23]
  Cmax: 672 ng/mL
[24]
  Tmax: 6 h
[25]
  AUC(0-t) at 24 h: 6990 ng·h/mL
[26]
  Fu: 0.09%
[27]
  half-life at 1 µM: > 3.07 h
[28]
  Activity: > 80%
[29]
  DC50: 4.01 nM
[30]
  solubility kinetic at 2 h: 7.78 µg/mL (≈ 8.94 µM)
[31]
  half-life at 1 µM: > 6.18 h
Mus musculus [32]
  Activity: Active
[33]
  half-life: 8.67 h
[34]
  half-life: 4.34 h
[35]
  Vdss: 73 L/kg
[36]
  Emax: 82%
CYP3A4 [37]
  inhibition at 10 min, 10 µM: 10.2%
[38]
  bioavailability: 39%
